# Assay results taken from paper PMC4099323, “Inhibition of Catalase by Tea Catechins in Free and Cellular State: A Biophysical Approach” (PLoS ONE, 2014).
# Target: T1, Catalase (from bovine liver) (Bos taurus, UniProt P00432)
# T1 construct: Catalase (from bovine liver); purchased Sigma-Aldrich, St. Louis, MO, USA; host or cells: bovine liver
# T1 sequence (P00432 2-527 limits assumed): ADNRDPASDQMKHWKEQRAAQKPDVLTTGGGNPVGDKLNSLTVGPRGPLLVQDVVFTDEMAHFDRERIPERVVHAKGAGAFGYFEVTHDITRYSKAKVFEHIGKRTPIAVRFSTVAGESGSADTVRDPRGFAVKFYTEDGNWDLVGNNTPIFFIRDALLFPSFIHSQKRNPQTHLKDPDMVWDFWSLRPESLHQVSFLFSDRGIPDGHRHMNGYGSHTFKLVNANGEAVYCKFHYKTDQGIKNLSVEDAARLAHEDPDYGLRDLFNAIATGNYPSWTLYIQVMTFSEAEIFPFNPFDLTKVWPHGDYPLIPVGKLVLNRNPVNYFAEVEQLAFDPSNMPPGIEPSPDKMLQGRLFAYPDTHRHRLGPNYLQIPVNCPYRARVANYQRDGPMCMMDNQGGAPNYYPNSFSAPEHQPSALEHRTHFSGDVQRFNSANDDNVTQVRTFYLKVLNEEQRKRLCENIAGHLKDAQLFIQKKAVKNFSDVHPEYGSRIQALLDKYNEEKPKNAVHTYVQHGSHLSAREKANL
# Assay: Isothermal titration calorimetry of catechins binding to catalase
# Conditions: 25°C
# Protocol: The energetics of the binding of catechins to catalase was studied by ITC using a MicroCal ITC200, (Northampton, MA, USA). All solutions were degassed under vacuum (140 mbar, 10 min) on the MicroCal’s Thermovac unit to eliminate air bubble formation inside the calorimeter cell. Briefly, the calorimeter syringe was filled with a concentrated solution of catechins (10 µM each). Successive injections of this solution into 1 µM solution of catalase in the calorimeter cell were effected from the rotating syringe with constant stirring of the solution. The titration and analysis were performed through Origin 7 software provided with the unit.
# ITC directly measures the heat released during a chemical reaction. ITC can reveal the stoichiometry, enthalpy free energy, and entropy changes that occur over the course of a reaction, [46]. Data obtained from the titration are presented by the series of peaks corresponding to each injection. Usually, this representation is transformed into the apparent heat change between two injections as a function of the titrant ratio by means of integration of power differential with regard to time. ITC has been used mainly to quantify interactions in various biochemical systems [47]–[49]. ITC has been used in the present study to determine binding affinity and other thermodynamic parameters of catechins-catalase interaction. Representative isothermal calorimetric heat profiles for the binding of catechins-catalase interaction, at physiological pH and 25°C are shown in Figure 4 (A–D). The data were corrected for the heat of dilution of catechins, which was determined in a separate set of experiments under identical conditions. The titration and analysis were performed using one-site binding model through Origin 7 software provided with the unit. From Figure 4 it is observed that the titration of catalase with all the four catechins yield negative heat deflections. EC, EGC, ECG, and EGCG bind to catalase with binding constants 2.13×10^5, 1.92×10^5, 6.36×10^5, and 8.19×10^5 M^−1, respectively, as determined by the following equation: ΔG = −RT ln K, where ΔG is the free energy, R and T are the gas constant and temperature, respectively, K is the binding constant.
# [1] = ITC, directly extracted from the experiment
smiles,measurement,setting,value
"O=C(O[C@@H]1Cc2c(O)cc(O)cc2O[C@@H]1c1cc(O)c(O)c(O)c1)c1cc(O)c(O)c(O)c1 [EGCG, (−)-epigallocatechin gallate]",ΔG,"ITC, calculated from the average values of ΔH",-7.95 kcal/mol
same,ΔH,[1],-450 ± 22.5 kcal/mol
same,ΔS,[1],−1.48×10^3 cal/mol/K
same,Kd,"one-site binding model, from ΔG = −RT ln K, read-out: binding constant with catalase (ITC) (converted)",1220 nM
